The test system of experiment [1] is β-adrenoceptor (guinea pig atrium). Briefly: spontaneously beating guinea pig atrium test: inhibition of the positive chronotropic isoprenaline effect. To be noted: β-adrenoceptor blocking activity, vs isoprenaline.
The test system of experiment [2] is tracheal preparations (guinea pig trachea). Description: in vitro tracheal preparations of the guinea pig, relaxation under isoproterenol.
[3] abbreviates: at concentrations as high as 1×10^-4 M.

With `COCCc1ccc(OCC(O)CNCCNC(=O)C2CCOCC2)cc1` (centres unmarked) [Example 3], the “Guinea pig atrium test Effective dose (molar concentration)” value (from here on “Guinea pig atrium test Effective dose”) in experiment [1] came to 200 nM.
Still for that read-out and setting: under `COCCc1ccc(OCC(O)CNCCNC(=O)C2CCCOC2)c(C#N)c1` (centres unmarked) [Example 9] stands 300 nM.
Turning to `O=C(NCCNCC(O)COc1ccc(OCCOCC2CC2)cc1)C1CCCOC1` (centres unmarked) [Example 10], the “effect in the trachea” value in experiment [2] (setting [3]) was “no effect”.
Take `COCCc1ccc(OCC(O)CNCCNC(=O)C2CCCOC2)cc1` (centres unmarked) [Example 1, 1-[4-(2-Methoxyethyl)phenoxy]-3-[2-(tetrahydropyran-3-ylcarbonylamino)ethylamino]-2-propanol]: the “effect in the trachea” value in experiment [2] (at concentrations as high as 2×10^-5 M) is “no effect”.
`COCCOc1ccc(OCC(O)CNCCNC(=O)C2CCOCC2)cc1` (centres unmarked) [Example 6]: in experiment [2] (setting [3]), the “effect in the trachea” value is reported as “no effect”. In addition, the “Guinea pig atrium test Effective dose” value in experiment [1] worked out at 400 nM.
With `COCCc1ccc(OCC(O)CNCCNC(=O)C2CCOCC2)c(C#N)c1` (centres unmarked) [Example 7], in experiment [1], the “Guinea pig atrium test Effective dose” value stood at 80 nM.
Turning to `O=C(NCCNCC(O)COc1ccc(OCCOCC2CC2)cc1)C1CCOCC1` (centres unmarked) [Example 11], the “effect in the trachea” value in experiment [2] (setting [3]) is “no effect”. The “Guinea pig atrium test Effective dose” value in experiment [1] came to 200 nM.
`O=C(NCCCNCC(O)COc1ccc(OCCOCC2CC2)cc1)C1CCOCC1` (centres unmarked) [Example 12]: the “Guinea pig atrium test Effective dose” value in experiment [1] came out at 3000 nM.
Same read-out and setting: under `COCCc1ccc(OCC(O)CNCCNC(=O)C2CCCOC2)c(Br)c1` (centres unmarked) [Example 8] stands 80 nM.
